# Results taken from ChEMBL document CHEMBL4261602, “Tri-armed ligands of G-quadruplex on heteroarene-fused anthraquinone scaffolds: Design, synthesis and pre-screening of biological properties” (Eur J Med Chem, 2018).
# Key:
# L1210 = assay: Antiproliferative activity in mouse L1210 cells after 48 hrs by MTT assay; assay type: functional, cell-based; conditions: L1210, 48 h
# HeLa = assay: Antiproliferative activity in human HeLa cells after 72 hrs by MTT assay; assay type: functional, cell-based
# [1] = Selectivity ratio of Kb for human FAM-5'-d(AGGGTTAGGGTTAGGGTTAGGG)-3'-BHQ1 telomeric G4 quadruplex DNA to Kb for d(CAATCGGATCGAATTCGATCCGATTG) DNA (unknown origin)
# Quadruplex DNA [2] = assay: Stabilization of human FAM-5'-d(AGGGTTAGGGTTAGGGTTAGGG)-3'-BHQ1 telomeric G4 quadruplex DNA assessed as change in melting temperature at 1 uM in presence of 50 fold excess of competitor ds26 oligonucleotide DNA by FRET assay; assay type: nucleic-acid assay
# Quadruplex DNA [3] = assay: Stabilization of human FAM-5'-d(AGGGTTAGGGTTAGGGTTAGGG)-3'-BHQ1 telomeric G4 quadruplex DNA assessed as change in melting temperature at 1 uM by FRET assay; assay type: nucleic-acid assay
# Quadruplex DNA [4] = assay: Stabilization of human FAM-5'-d(AGGGTTAGGGTTAGGGTTAGGG)-3'-BHQ1 telomeric G4 quadruplex DNA assessed as binding constant at 1 uM by FRET assay; assay type: nucleic-acid assay
# [5] = Stabilization of d(CAATCGGATCGAATTCGATCCGATTG) DNA (unknown origin) assessed as binding constant at 1 uM by FRET assay
# CCRF-CEM = assay: Antiproliferative activity in human CEM cells after 72 hrs by MTT assay; assay type: functional, cell-based
# [6] = Drug uptake in human K562 cells at 1 uM within 15 mins by flow cytometry analysis; assay type: ADME, cell-based; conditions: k562, 0.25 h
Structure (SMILES),IC50 (L1210),IC50 (HeLa),Selectivity ratio [1],ΔTm (Quadruplex DNA [2]),ΔTm (Quadruplex DNA [3]),Kb (Quadruplex DNA [4]),Kb [5],IC50 (CCRF-CEM),Drug uptake [6]
N=C(N)NCCCNC(=O)c1cc2c(NCCCNC(=N)N)c3c(c(NCCCNC(=N)N)c2s1)C(=O)c1ccccc1C3=O,10 µM,18 µM,1700,17 °C,22 °C,47 ×10⁶ /M,0.03 ×10⁶ /M,11 µM,–
N=C(N)NCCNC(=O)c1cc2c(NCCNC(=N)N)c3c(c(NCCNC(=N)N)c2s1)C(=O)c1ccccc1C3=O,12 µM,18 µM,300,10 °C,20 °C,33 ×10⁶ /M,0.1 ×10⁶ /M,16 µM,–
N=C(N)NCCCNc1c2c(c(NCCCNC(=N)N)c3sc(C(=O)NCCNC(=N)N)cc13)C(=O)c1ccccc1C2=O,9 µM,17 µM,–,21 °C,21 °C,44 ×10⁶ /M,–,12 µM,–
N=C(N)NCCCNC(=O)c1cc2c(NCCCNC(=N)N)c3c(c(NCCCNC(=N)N)c2o1)C(=O)c1ccccc1C3=O,18 µM,17 µM,4550,24 °C,25 °C,91 ×10⁶ /M,0.02 ×10⁶ /M,17 µM,–
N=C(N)NCCCNC(=O)c1cc2c(NCCNC(=N)N)c3c(c(NCCNC(=N)N)c2s1)C(=O)c1ccccc1C3=O,13 µM,15 µM,1300,19 °C,20.5 °C,40 ×10⁶ /M,0.03 ×10⁶ /M,13 µM,Active
N=C(N)NCCNc1c2c(c(NCCNC(=N)N)c3sccc13)C(=O)c1ccccc1C2=O,–,13 µM,60,1 °C,11 °C,6 ×10⁶ /M,0.1 ×10⁶ /M,–,Active
N=C(N)NCCCNC(=O)c1cc2c(NCCOCCN)c3c(c(NCCOCCN)c2s1)C(=O)c1ccccc1C3=O,10 µM,9 µM,950,14 °C,20 °C,29 ×10⁶ /M,0.03 ×10⁶ /M,11 µM,–
N=C(N)NCCNC(=O)c1cc2c(NCCNC(=N)N)c3c(c(NCCNC(=N)N)c2o1)C(=O)c1ccccc1C3=O,9 µM,14 µM,2300,20.3 °C,21.3 °C,46 ×10⁶ /M,0.02 ×10⁶ /M,12 µM,–

# Further lines, results first:
IC50 (L1210),IC50 (HeLa),Selectivity ratio [1],ΔTm (Quadruplex DNA [2]),ΔTm (Quadruplex DNA [3]),Kb (Quadruplex DNA [4]),Kb [5],IC50 (CCRF-CEM),Drug uptake [6],Structure (SMILES)
19 µM,12 µM,2800,18 °C,21 °C,38 ×10⁶ /M,0.01 ×10⁶ /M,21 µM,Active,N=C(N)NCCCNC(=O)c1cc2c(NCCCCCN)c3c(c(NCCCCCN)c2s1)C(=O)c1ccccc1C3=O
17 µM,14 µM,1500,15 °C,18 °C,22 ×10⁶ /M,0.01 ×10⁶ /M,15 µM,–,N=C(N)NCCCNC(=O)c1cc2c(NCCCCCN)c3c(c(NCCCCCN)c2o1)C(=O)c1ccccc1C3=O
12 µM,11 µM,2500,18 °C,22 °C,45 ×10⁶ /M,0.02 ×10⁶ /M,16 µM,–,N=C(N)NCCCNC(=O)c1cc2c(NCCCCN)c3c(c(NCCCCN)c2s1)C(=O)c1ccccc1C3=O
19 µM,11 µM,850,13 °C,18 °C,22 ×10⁶ /M,0.03 ×10⁶ /M,18 µM,–,N=C(N)NCCNC(=O)c1cc2c(NCCCCCN)c3c(c(NCCCCCN)c2o1)C(=O)c1ccccc1C3=O
